# Results reported in the supplement of paper PMC10307832.
# Columns and labels:
# Experiment in all cases: relative viability (nuclei count vs DMSO), 5 days (fraction); higher = more cells survive
# CAL-12T = test system: CAL-12T
# Procedure, shortened: (§1)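 Lung cancer cell lines in 1536-well plates got either a single drug or a fixed anchor-drug dose together with five library-drug doses (not always all listed) in √10 steps, by pin tool, on the day after seeding. Nuclei were counted after 5 days, and relative viability is the treated-to-vehicle ratio of nuclei counts. Values are medians of duplicate plates.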
# NCI-H322M = test system: NCI-H322M
# Procedure, shortened: as §1
# HCC-827 = test system: HCC-827
# Procedure, shortened: as §1
# NCI-H2087 = test system: NCI-H2087
# Procedure, shortened: as §1
# RERF-LC-KJ = test system: RERF-LC-KJ
# Procedure, shortened: as §1
# LXF-289 = test system: LXF-289
# Procedure, shortened: as §1
# NCI-H3122 = test system: NCI-H3122
# Procedure, shortened: as §1
# LCLC-103H = test system: LCLC-103H
# Procedure, shortened: as §1
# SK-LU-1 = test system: SK-LU-1
# Procedure, shortened: as §1
# BEN = test system: BEN
# Procedure, shortened: as §1
# NCI-H2405 = test system: NCI-H2405
# Procedure, shortened: as §1
# NCI-H727 = test system: NCI-H727
# Procedure, shortened: as §1
# 201T = test system: 201T
# Procedure, shortened: as §1
# NCI-H1437 = test system: NCI-H1437
# Procedure, shortened: as §1
# NCI-H647 = test system: NCI-H647
# Procedure, shortened: as §1
# NCI-H1792 = test system: NCI-H1792
# Procedure, shortened: as §1
# NCI-H2228 = test system: NCI-H2228
# Procedure, shortened: as §1
# LCLC-97TM1 = test system: LCLC-97TM1
# Procedure, shortened: as §1
# NCI-H1650 = test system: NCI-H1650
# Procedure, shortened: as §1
smiles,measurement,setting,value
CCN(CC)CCCCNc1ncc2cc(-c3cc(OC)cc(OC)c3)c(NC(=O)NC(C)(C)C)nc2n1 + CC(C)C[C@H](NC(=O)[C@H](Cc1ccccc1)NC(=O)c1cnccn1)B(O)O [Bortezomib] (partner 0.002 µM),relative viability,CAL-12T; first compound 0.03162 µM,1.02
same,relative viability,CAL-12T; first compound 0.1 µM,1.03
same,relative viability,CAL-12T; first compound 0.3162 µM,1.26
same,relative viability,CAL-12T; first compound 1 µM,0.769
same,relative viability,NCI-H322M; first compound 0.01 µM,1.29
same,relative viability,NCI-H322M; first compound 0.03162 µM,1.36
same,relative viability,NCI-H322M; first compound 0.1 µM,1.35
same,relative viability,NCI-H322M; first compound 0.3162 µM,1.39
same,relative viability,NCI-H322M; first compound 1 µM,1.08
same,relative viability,HCC-827; first compound 0.01 µM,1.07
same,relative viability,HCC-827; first compound 0.03162 µM,1
same,relative viability,HCC-827; first compound 0.1 µM,1.09
same,relative viability,HCC-827; first compound 0.3162 µM,1.04
same,relative viability,HCC-827; first compound 1 µM,1.05
same,relative viability,NCI-H2087; first compound 0.01 µM,0.85
same,relative viability,NCI-H2087; first compound 0.03162 µM,0.909
same,relative viability,NCI-H2087; first compound 0.1 µM,1.08
same,relative viability,NCI-H2087; first compound 0.3162 µM,1.04
same,relative viability,NCI-H2087; first compound 1 µM,0.689
same,relative viability,RERF-LC-KJ; first compound 0.01 µM,1.17
same,relative viability,RERF-LC-KJ; first compound 0.03162 µM,1.15
same,relative viability,RERF-LC-KJ; first compound 0.1 µM,1.05
same,relative viability,RERF-LC-KJ; first compound 0.3162 µM,1.21
same,relative viability,RERF-LC-KJ; first compound 1 µM,1
same,relative viability,LXF-289; first compound 0.01 µM,0.99
same,relative viability,LXF-289; first compound 0.03162 µM,1.08
same,relative viability,LXF-289; first compound 0.1 µM,1.16
same,relative viability,LXF-289; first compound 0.3162 µM,0.955
same,relative viability,LXF-289; first compound 1 µM,0.846
same,relative viability,NCI-H3122; first compound 0.01 µM,1.02
same,relative viability,NCI-H3122; first compound 0.03162 µM,1.07
same,relative viability,NCI-H3122; first compound 0.1 µM,1.1
same,relative viability,NCI-H3122; first compound 0.3162 µM,1.06
same,relative viability,NCI-H3122; first compound 1 µM,1.01
same,relative viability,LCLC-103H; first compound 0.01 µM,1.07
same,relative viability,LCLC-103H; first compound 0.03162 µM,1.06
same,relative viability,LCLC-103H; first compound 0.1 µM,1.09
same,relative viability,LCLC-103H; first compound 0.3162 µM,1.13
same,relative viability,LCLC-103H; first compound 1 µM,0.945
same,relative viability,SK-LU-1; first compound 0.01 µM,1.1
same,relative viability,SK-LU-1; first compound 0.03162 µM,0.911
same,relative viability,SK-LU-1; first compound 0.1 µM,1.27
same,relative viability,SK-LU-1; first compound 0.3162 µM,1.75
same,relative viability,SK-LU-1; first compound 1 µM,1.06
same,relative viability,BEN; first compound 0.01 µM,0.819
same,relative viability,BEN; first compound 0.03162 µM,0.528
same,relative viability,BEN; first compound 0.1 µM,1.03
same,relative viability,BEN; first compound 0.3162 µM,0.766
same,relative viability,BEN; first compound 1 µM,0.715
same,relative viability,NCI-H2405; first compound 0.01 µM,0.973
same,relative viability,NCI-H2405; first compound 0.03162 µM,0.866
same,relative viability,NCI-H2405; first compound 0.1 µM,1.05
same,relative viability,NCI-H2405; first compound 0.3162 µM,1.04
same,relative viability,NCI-H2405; first compound 1 µM,0.982
same,relative viability,NCI-H727; first compound 0.01 µM,1.39
same,relative viability,NCI-H727; first compound 0.03162 µM,0.871
same,relative viability,NCI-H727; first compound 0.1 µM,0.809
same,relative viability,NCI-H727; first compound 0.3162 µM,1.2
same,relative viability,NCI-H727; first compound 1 µM,0.783
same,relative viability,201T; first compound 0.01 µM,1.03
same,relative viability,201T; first compound 0.03162 µM,1.14
same,relative viability,201T; first compound 0.1 µM,1.14
same,relative viability,201T; first compound 0.3162 µM,1.15
same,relative viability,201T; first compound 1 µM,0.976
same,relative viability,NCI-H1437; first compound 0.01 µM,0.536
same,relative viability,NCI-H1437; first compound 0.03162 µM,0.533
same,relative viability,NCI-H1437; first compound 0.1 µM,0.593
same,relative viability,NCI-H1437; first compound 0.3162 µM,0.554
same,relative viability,NCI-H1437; first compound 1 µM,0.472
same,relative viability,NCI-H647; first compound 0.01 µM,1.02
same,relative viability,NCI-H647; first compound 0.03162 µM,0.996
same,relative viability,NCI-H647; first compound 0.1 µM,1.6
same,relative viability,NCI-H647; first compound 0.3162 µM,1.08
same,relative viability,NCI-H647; first compound 1 µM,1.07
same,relative viability,NCI-H1792; first compound 0.01 µM,1.05
same,relative viability,NCI-H1792; first compound 0.03162 µM,1.05
same,relative viability,NCI-H1792; first compound 0.1 µM,0.924
same,relative viability,NCI-H1792; first compound 0.3162 µM,1.38
same,relative viability,NCI-H1792; first compound 1 µM,0.689
same,relative viability,NCI-H2228; first compound 0.01 µM,0.874
same,relative viability,NCI-H2228; first compound 0.03162 µM,0.997
same,relative viability,NCI-H2228; first compound 0.1 µM,1.24
same,relative viability,NCI-H2228; first compound 0.3162 µM,1.11
same,relative viability,NCI-H2228; first compound 1 µM,1.02
same,relative viability,LCLC-97TM1; first compound 0.01 µM,0.723
same,relative viability,LCLC-97TM1; first compound 0.03162 µM,0.614
same,relative viability,LCLC-97TM1; first compound 0.1 µM,0.789
same,relative viability,LCLC-97TM1; first compound 0.3162 µM,1.54
same,relative viability,LCLC-97TM1; first compound 1 µM,0.305
same,relative viability,NCI-H1650; first compound 0.01 µM,0.201
same,relative viability,NCI-H1650; first compound 0.03162 µM,0.217
same,relative viability,NCI-H1650; first compound 0.1 µM,0.233
same,relative viability,NCI-H1650; first compound 0.3162 µM,0.203
same,relative viability,NCI-H1650; first compound 1 µM,0.197
